ChEMBL document CHEMBL1795204 (2011)
The source made the active and inactive calls. The calls are words filed in the database; no cut-off is given here.

Key:
Type in all cases: functional
Haemonchus contortus [1] = test: Anthelmintic activity against Haemonchus contortus McMaster by larvel development assay
Haemonchus contortus [2] = test: Anthelmintic activity against benzimidazole-resistant Haemonchus contortus VRSG
Haemonchus contortus [3] = test: Anthelmintic activity against benzimidazole and Levamisole-resistant Haemonchus contortus Lawes
[4] = test system: Teladorsagia circumcincta; test: Anthelmintic activity against Ostertagia circumcincta
[5] = test system: Trichostrongylus colubriformis; test: Anthelmintic activity against Trichostrongylus colubriformis McMaster
Haemonchus contortus [6] = test: Anthelmintic activity against Ivermectin-resistant Haemonchus contortus CAVR

Row | Molecule | LD99 (Haemonchus contortus [1]) | also measured
1 | CCOCCOc1ccc(-c2cn3nc(SCC(C)C)ccc3n2)cc1 | 0.87 µM | 
2 | CCOCCOc1ccc(-c2cn3nc(OCC4CC4)ccc3n2)cc1 | 0.11 µM | 
3 | COCCOc1ccc(-c2nc3ccc(OCc4ccccc4)nn3c2Cl)cc1 | inactive | 
4 | COCCOc1ccc(-c2cn3nc(OCC4CC4)ccc3n2)cc1 | 0.11 µM | 
5 | CCCOc1ccc2nc(-c3ccccc3)cn2n1 | inactive | 
6 | CCCOc1ccc2nc(-c3ccc(OCCOC)cc3)c(-c3ccccc3)n2n1 | 9.29 µM | 
7 | COCCOc1ccc(-c2cn3nc(-c4ccccc4)ccc3n2)cc1 | 8.11 µM | 
8 | c1ccc([C@H]2CN3CCSC3=N2)cc1 [LEVAMISOLE] | 0.66 µM | 
9 | COCCOc1cccc(-c2nc3ccc(OC(C)C)nn3c2C)c1 | 14.65 µM | 
10 | COCCOc1ccc(-c2cn3nc(OCCOC)ccc3n2)cc1 | 17.47 µM | 
11 | FC(F)(F)c1ccc(-c2cn3nc(OCC4CC4)ccc3n2)cc1 | inactive | 
12 | CCCOc1ccc2nc(-c3ccc(OCCOC)cc3)c(Cl)n2n1 | 0.06 µM | 
13 | CCCOc1ccc2nc(-c3ccc(OCCOCC)cc3)cn2n1 | 0.32 µM | 
14 | COCCOc1ccc(-c2cn3ncccc3n2)cc1 | inactive | 
15 | COCCOc1ccc(-c2cn3nc(OC4CCCC4)ccc3n2)cc1 | 5.31 µM | 
16 | CCc1ccc(-c2cn3nc(OCC4CC4)ccc3n2)cc1 | 0.27 µM | 
17 | CCCNc1ccc2nc(-c3ccc(OCCOC)cc3)cn2n1 | 2.11 µM | 
18 | CCCSc1ccc2nc(-c3ccc(Cl)cc3Cl)cn2n1 | inactive | 
19 | CCCOc1ccc2nc(-c3ccc(OCCOC)c(OC)c3)cn2n1 | 2.27 µM | 

Row | Molecule | LD99 (Haemonchus contortus [1]) | also measured
20 | CCCOc1ccc2nc(-c3ccc(OCCOC)cc3)c(C#N)n2n1 | 0.11 µM | 
21 | CCCOc1ccc2nc(-c3ccc(Cl)cc3)cn2n1 | 13.03 µM | 
22 | COCCOc1ccc(-c2cn3nc(-c4ccsc4)ccc3n2)cc1 | 1.96 µM | 
23 | CCCOc1ccc2nc(-c3ccc4c(c3)OCCO4)cn2n1 | 2.6 µM | 
24 | CCCSc1ccc2nc(-c3cccc(OC)c3)cn2n1 | 2.1 µM | 
25 | COCCOc1ccc(-c2cn3nc(SC(C)C)ccc3n2)cc1 | 0.59 µM | 
26 | CCCOc1nn2cc(-c3ccc(OCCOC)c(OC)c3)nc2cc1C | 0.32 µM | 
27 | IVERMECTIN | 0.006 µM | 
28 | CCCOc1ccc2nc(-c3ccc4c(c3)OCO4)cn2n1 | 0.77 µM | LD99 (Haemonchus contortus [2]): 0.94 µM; LD99 (Haemonchus contortus [3]): 0.67 µM; LD99 [4]: 0.33 µM; LD99 [5]: 0.67 µM; LD99 (Haemonchus contortus [6]): 1.85 µM
29 | CCCOc1ccc2nc(-c3cccc(OCCOC)c3)c(C)n2n1 | 5.49 µM | 
30 | CCCSc1ccc2nc(-c3ccc(OCCOC)c(OC)c3)c(Br)n2n1 | 1.66 µM | 
31 | CCCOc1ccc2nc(-c3ccc(OCCOC)cc3)c(C)n2n1 | 0.32 µM | 
32 | CCCOc1ccc2nc(-c3ccc(OCCOC)c(OC)c3)c(I)n2n1 | 10.35 µM | 
33 | CCCOc1ccc2nc(-c3cccc(OC)c3)cn2n1 | 0.81 µM | 
34 | CCCOc1nn2cc(-c3ccc(OCC)cc3)nc2c2ccccc12 | 1.8 µM | 
35 | CCCCN(C)c1ccc2nc(-c3ccc(OCCOC)cc3)cn2n1 | 2.29 µM | 
36 | CCCOc1ccc2nc(-c3ccc(OCCOC)c(OC)c3)c(C#N)n2n1 | inactive | 
37 | CCOc1ccc2nc(-c3ccc(OCCOC)cc3)cn2n1 | 1.3 µM | 
38 | CCCSc1ccc2nc(-c3ccc(OCCOC)c(OC)c3)cn2n1 | 2.17 µM | 

Row | Molecule | LD99 (Haemonchus contortus [1]) | also measured
39 | COCCOc1ccc(-c2cn3nc(OC(C)C)ccc3n2)cc1 | 4.96 µM | 
40 | CCCCSc1ccc2nc(-c3ccc(C(F)(F)F)cc3)cn2n1 | inactive | 
41 | CCCOc1nn2cc(-c3ccc(OCCOC)cc3)nc2c2ccccc12 | 0.91 µM | 
42 | CCCSc1ccc2nc(-c3ccc(OCCOC)cc3)cn2n1 | 2.36 µM | 
43 | COCCOc1cccc(-c2nc3ccc(SC(C)C)nn3c2C)c1 | 19.58 µM | 
44 | CCCCOc1ccc2nc(-c3ccc(OCCOC)cc3)cn2n1 | 0.64 µM | 
45 | CCCCSc1ccc2nc(-c3ccc(OCCOC)cc3)cn2n1 | 0.26 µM | 
46 | CCCSc1ccc2nc(-c3ccc(OCC)cc3)cn2n1 | 1.21 µM | 
47 | COCCOc1ccc(-c2cn3nc(N4CCCC4)ccc3n2)cc1 | 9.6 µM | 
48 | COCCOc1ccc(-c2nc3ccc(OCC4CC4)nn3c2Br)cc1 | 0.1 µM | 
49 | CCCOc1nn2cc(-c3ccc(OCC)cc3)nc2cc1C | 0.6 µM | 
50 | Clc1ccc(-c2cn3nc(OCC4CC4)ccc3n2)c(Cl)c1 | inactive | 
51 | CCCOc1ccc2nc(-c3ccc(OCCOC)cc3)c(Br)n2n1 | 0.03 µM | 
52 | CCCCc1ccc2nc(-c3ccc(OCCOC)cc3)cn2n1 | 1.92 µM | 
53 | CCCCSc1ccc2nc(-c3ccc(OCCOCC)cc3)cn2n1 | 0.59 µM | 
54 | CCCOc1ccc2nc(-c3ccc(OCCOC)cc3)c(I)n2n1 | 0.03 µM | 
55 | CCCOc1ccc2nc(-c3ccc(OC)c(OC)c3)cn2n1 | 4.15 µM | 
56 | CCOc1ccc(-c2cn3nc(OCC4CC4)ccc3n2)cc1 | 0.09 µM | 
57 | CCCOc1ccc2nc(-c3ccc(OCCOC)cc3)cn2n1 | 0.29 µM | 
